Results reported in US20160039825A1 (BIOGEN MA INC., priority 2013, published 2016).

Molecular target: T1, Human ATX protein (Homo sapiens, UniProt Q13822)
T1 construct: made in house
Assay: Autotaxin (ATX) assay, FRET with FS-3 substrate
Format: biochemical
Details: for IC50: upper bound bins (no greater than 100, 250 or 500 nM), FS-3 2 μM, ATX 1.0 μg/mL
In short: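 In-house human ATX (1.0 μg/mL final) was preincubated with compound for 30 min at room temperature in Tris buffer pH 7.4 with NaCl, KCl, CaCl2, MgCl2 and 1 mg/mL fatty acid-free BSA. FS-3 (2 μM final) was added and the plate shaken 2 h at room temperature in the dark. Fluorescence was read at ex 485/em 538 nm.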

| IC50 [nM] | inhibition at 10 µM (10 uM compound) [%] | Compound |
| --- | --- | --- |
| ≤ 500 |  | O=C(O)c1cc2n(n1)CCCN(C(=O)OCc1cc(F)cc(Br)c1)C2 [Example 75, 5-(((3-Bromo-5-fluorobenzyl)oxy)carbonyl)-5,6,7,8-tetrahydro-4H-pyrazolo[1,5-a][1,4]diazepine-2-carb oxylic acid] |
| ≤ 100 |  | NCCNC(=O)c1cc2n(n1)CCN(C(=O)OCc1cc(C(F)(F)F)cc(C(F)(F)F)c1)C2 [Example 425] |
| ≤ 500 |  | O=C(O)c1cc2n(n1)CCCN(C(=O)OCc1cc(F)cc(Cl)c1)C2 [Example 68, 5-(((3-Chloro-5-fluorobenzyl)oxy)carbonyl)-5,6,7,8-tetrahydro-4H-pyrazolo[1,5-a][1,4]diazepine-2-carboxylic acid] |
| ≤ 100 |  | C[C@H]1CCCN1CC(=O)c1cc2n(n1)CCCN(C(=O)OCc1cc(Cl)cc(C(F)(F)F)c1)C2 [Example 262] |
| ≤ 100 |  | CC(=O)Nc1cc2n(n1)CCCN(C(=O)OCc1cc(C(F)(F)F)cc(C(F)(F)F)c1)C2 [Example 337, 3,5-bis(trifluoromethyl)benzyl 2-acetamido-7,8-dihydro-4H-pyrazolo[1,5-a][1,4]diazepine-5(6H)-carboxylate] |
|  | 60 | Nc1cc2n(n1)CCCN(C(=O)OCc1cc(C(F)(F)F)cc(C(F)(F)F)c1)C2 [Example 279, 3,5-Bis(trifluoromethyl)benzyl 2-amino-7,8-dihydro-4H-pyrazolo[1,5-a][1,4]diazepine-5(6H)-carboxylate] |
| ≤ 100 |  | O=C(O)c1cc2n(n1)CCCN(C(=O)OCc1cc(F)cc(C(F)(F)F)c1)C2 [Example 64, 5-(((3-Fluoro-5-(trifluoromethyl)benzyl)oxy)carbonyl)-5,6,7,8-tetrahydro-4H-pyrazolo[1,5-a][1,4]diazepine-2-carboxylic acid] |
| ≤ 100 |  | CCOC(=O)c1cc2n(n1)CCCN(C(=O)OCc1cc(Cl)cc(C(F)(F)F)c1)C2 [Example 404] |
| ≤ 100 |  | O=C(OCc1cc(Cl)cc(C(F)(F)F)c1)N1CCCn2nc(-c3ccncc3)cc2C1 [Example 369, 3-chloro-5-(trifluoromethyl)benzyl 2-(pyridin-4-yl)-7,8-dihydro-4H-pyrazolo[1,5-a][1,4]diazepine-5(6H)-carboxylate] |
| ≤ 100 |  | CNC(=O)c1cc2n(n1)CCN(C(=O)OCc1cc(C(F)(F)F)cc(C(F)(F)F)c1)C2 [Example 482] |
| ≤ 100 |  | C[C@@H]1CNC[C@@H](C)N1C(=O)c1cc2n(n1)CCCN(C(=O)OCc1cc(C(F)(F)F)cc(C(F)(F)F)c1)C2 [Example 248] |
| ≤ 100 |  | CC1(C)CNCCN1C(=O)c1cc2n(n1)CCCN(C(=O)OCc1cc(C(F)(F)F)cc(C(F)(F)F)c1)C2 [Example 239] |
| ≤ 100 |  | NC(=O)c1cc2n(n1)CCCN(C(=O)OCc1cc(Cl)cc(Cl)c1)C2 [Example 102, 3,5-Dichlorobenzyl 2-carbamoyl-7,8-dihydro-4H-pyrazolo[1,5-a][1,4]diazepine-5(6H)-carboxylate] |
| ≤ 100 |  | O=C(OCc1cc(Cl)cc(C(F)(F)F)c1)N1CCCn2nc(C(=O)N3CCN4CCC[C@@H]4C3)cc2C1 [Example 214] |
| ≤ 100 |  | CCOC(=O)c1cc2n(n1)CCCN(C(=O)OCc1cc(C)cc(C(F)(F)F)c1)C2 [Example 105, 2-Ethyl 5-(3-methyl-5-(trifluoromethyl)benzyl) 7,8-dihydro-4H-pyrazolo[1,5-a][1,4]diazepine-2,5(6H)-dicarboxylate] |
| ≤ 100 |  | CC1(C)CNCCN1C(=O)c1cc2n(n1)CCCN(C(=O)OCc1cc(Cl)cc(C(F)(F)F)c1)C2 [Example 207, 3-chloro-5-(trifluoromethyl)benzyl 2-(2,2-dimethylpiperazine-1-carbonyl)-7,8-dihydro-4H-pyrazolo[1,5-a][1,4]diazepine-5(6H)-carboxylate] |

Second part, the molecule before the results:

| Compound | IC50 [nM] | inhibition at 10 µM (10 uM compound) [%] |
| --- | --- | --- |
| CN1CCC2C1CCN2c1cc2n(n1)CCCN(C(=O)OCc1cc(C(F)(F)F)cc(C(F)(F)F)c1)C2 (stereo not drawn) [Example 360] | ≤ 100 |  |
| O=C(OCc1cc(C(F)(F)F)cc(C(F)(F)F)c1)N1CCCn2nc(N3CCC4NCCC43)cc2C1 (stereo not drawn) [Example 359] | ≤ 100 |  |
| O=C(O)C1CC2CCCC(C1)N2Cc1cc2n(n1)CCCN(C(=O)OCc1cc(C(F)(F)F)cc(C(F)(F)F)c1)C2 (stereo not drawn) [Example 297] | ≤ 250 |  |
| CC(C)(C)NC(=O)c1cc2n(n1)CCCN(C(=O)OCc1cc(Cl)cc(Cl)c1)C2 [Example 14, 3,5-Dichlorobenzyl 2-(tert-butylcarbamoyl)-7,8-dihydro-4H-pyrazolo[1,5-a][1,4]diazepine-5(6H)-carboxylate] | ≤ 250 |  |
| CCOC(=O)c1cn2c(n1)CN(C(=O)OCc1cc(C(F)(F)F)cc(C(F)(F)F)c1)CC2 [Example 3, 7-(3,5-Bis(trifluoromethyl)benzyl) 2-ethyl 5,6-dihydroimidazo[1,2-a]pyrazine-2,7(8H)-dicarboxylate] | ≤ 100 |  |
| O=C(O)C1CC2CCCC(C1)N2C(=O)c1cc2n(n1)CCCN(C(=O)CCc1cc(Cl)cc(Cl)c1)C2 (stereo not drawn) [Example 90, 9-(5-(3-(3,5-Dichlorophenyl)propanoyl)-5,6,7,8-tetrahydro-4H-pyrazolo[1,5-a][1,4]diazepine-2-carbonyl)-9-azabicyclo[3.3.1]nonane-3-carboxylic acid] | ≤ 100 |  |
| O=C(O)C1CC2CCC(C1)N2C(=O)c1cc2n(n1)CCCN(C(=O)OCc1cc(Cl)cc(Cl)c1)C2 (stereo not drawn) [Example 97, 8-(5-(((3,5-Dichlorobenzyl)oxy)carbonyl)-5,6,7,8-tetrahydro-4H-pyrazolo[1,5-a][1,4]diazepine-2-carbonyl)-8-azabicyclo[3.2.1]octane-3-carboxylic acid] | ≤ 100 |  |
| O=C(O)C1CC2CCCC(C1)N2C(=O)c1cc2n(n1)CCCN(C(=O)OCc1cc(F)cc(F)c1)C2 (stereo not drawn) [Example 62, 9-(5-((3,5-Trifluorobenzyloxy)carbonyl)-5,6,7,8-tetrahydro-4H-pyrazolo[1,5-a][1,4]diazepine-2-carbonyl)-9-aza-bicyclo[3.3.1]nonane-3-carboxylic acid] | ≤ 100 |  |
| O=C(O)C1CC2CCCC(C1)N2C(=O)c1cc2n(n1)CCN(C(=O)OCc1cccc(C(F)(F)F)c1)C2 (stereo not drawn) [Example 43, 9-(5-(((3-(Trifluoromethyl)benzyl)oxy)carbonyl)-4,5,6,7-tetrahydropyrazolo[1,5-a]pyrazine-2-carbonyl)-9-azabicyclo[3.3.1]nonane-3-carboxylic acid] | ≤ 100 |  |
| CC1CC(c2cc3n(n2)CCCN(C(=O)OCc2cc(C(F)(F)F)cc(C(F)(F)F)c2)C3)CC(C)N1 (stereo not drawn) [Example 382] | ≤ 100 |  |
| CN1C2CCCC1CN(C(=O)c1cc3n(n1)CCCN(C(=O)OCc1cc(C(F)(F)F)cc(C(F)(F)F)c1)C3)C2 [Example 230] | ≤ 100 |  |
| O=C(OCc1cc(C(F)(F)F)cc(C(F)(F)F)c1)N1CCn2nc(C(=O)N3CC4CCC(C3)N4)cc2C1 [Example 437] | ≤ 100 |  |
| O=C(O)C1CC2CCCC(C1)N2C(=O)c1cc2n(n1)CCN(C(=O)OCc1cc(Cl)cc(Cl)c1)C2 (stereo not drawn) [Example 41, 9-(5-(((3,5-Dichlorobenzyl)oxy)carbonyl)-4,5,6,7-tetrahydropyrazolo[1,5-a]pyrazine-2-carbonyl)-9-azabicyclo[3.3.1]nonane-3-carboxylic acid] | ≤ 100 |  |
| O=C(OCc1cc(C(F)(F)F)cc(C(F)(F)F)c1)N1CCCn2nc(C(=O)N3CC4CCC(C3)N4)cc2C1 [Example 221] | ≤ 100 |  |
| O=C(OCc1cc(Cl)cc(Cl)c1)N1CCCn2nc(C(=O)N3CCNCC3)cc2C1 [Example 24, 3,5-Dichlorobenzyl 2-(piperazine-1-carbonyl)-7,8-dihydro-4H-pyrazolo[1,5-a][1,4]diazepine-5(6H)-carboxylate] | ≤ 100 |  |
| CN1CCC(Nc2cc3n(n2)CCCN(C(=O)OCc2cc(C(F)(F)F)cc(C(F)(F)F)c2)C3)CC1 [Example 352, 3,5-bis(trifluoromethyl)benzyl 2-((1-methylpiperidin-4-yl)amino)-7,8-dihydro-4H-pyrazolo[1,5-a][1,4]diazepine-5(6H)-carboxylate] | ≤ 250 |  |
| O=C(NC1CCCCC1)c1cc2n(n1)CCCN(C(=O)OCc1cc(Cl)cc(Cl)c1)C2 [Example 17, 3,5-Dichlorobenzyl 2-(cyclohexylcarbamoyl)-7,8-dihydro-4H-pyrazolo[1,5-a][1,4]diazepine-5(6H)-carboxylate] | ≤ 100 |  |
| O=C(OCc1cc(C(F)(F)F)cc(C(F)(F)F)c1)N1CCn2nc(C3=CCCNC3)cc2C1 [Example 444] | ≤ 100 |  |
| CC(c1cc2n(n1)CCN(C(=O)OCc1cc(C(F)(F)F)cc(C(F)(F)F)c1)C2)N1CC2CCC(C1)N2C(=O)OC(C)(C)C (stereo not drawn) [Example 449] | ≤ 100 |  |
| CNC(=O)c1cc2n(n1)CCCN(C(=O)OCc1cc(Cl)cc(Cl)c1)C2 [Example 27, 3,5-Dichlorobenzyl 2-(methylcarbamoyl)-7,8-dihydro-4H-pyrazolo[1,5-a][1,4]diazepine-5(6H)-carboxylate] | ≤ 100 |  |
| O=C(OCc1cc(C(F)(F)F)cc(C(F)(F)F)c1)N1CCCn2nc(S(=O)(=O)N3C4CCCC3CC4)cc2C1 [Example 305] | ≤ 100 |  |
| O=C(OCc1cc(C(F)(F)F)cc(C(F)(F)F)c1)N1CCn2nc(C3CN4CCC[C@H]4CO3)cc2C1 (stereo partly drawn) [Example 255, 3,5-bis(trifluoromethyl)benzyl 2-((8aS)-hexahydro-1H-pyrrolo[2,1-c][1,4]oxazin-3-yl)-6,7-dihydropyrazolo[1,5-a]pyrazine-5(4H)-carboxylate] | ≤ 100 |  |
| CC(c1cc2n(n1)CCN(C(=O)OCc1cc(C(F)(F)F)cc(C(F)(F)F)c1)C2)N1CC2CCC(C1)N2 (stereo not drawn) [Example 427] | ≤ 100 |  |
| CN1CC=C(c2cc3n(n2)CCCN(C(=O)OCc2cc(C(F)(F)F)cc(C(F)(F)F)c2)C3)CC1 [Example 371, 3,5-bis(trifluoromethyl)benzyl 2-(1-methyl-1,2,3,6-tetrahydropyridin-4-yl)-7,8-dihydro-4H-pyrazolo[1,5-a][1,4]diazepine-5(6H)-carboxylate] | ≤ 100 |  |
| CC(C)(C)OC(=O)N1CCN(C(=O)c2cc3n(n2)CCN(C(=O)OCc2cc(C(F)(F)F)cc(C(F)(F)F)c2)C3)CC1 [Example 486] | ≤ 100 |  |
| CC(C)(C)C1CC(Nc2cc3n(n2)CCCN(C(=O)OCc2cc(C(F)(F)F)cc(C(F)(F)F)c2)C3)CCN1 (stereo not drawn) [Example 319] | ≤ 100 |  |
